{"source": "the supplement of paper PMC11451515", "key": {"NOMO1 [1]": {"system": "NOMO1", "experiment": "cell viability relative to DMSO control; higher = less cytotoxic", "conditions": "HPLM + 10% dialyzed FBS, 48 h", "summary_of_the_method": "(§1)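 Viability, reported as a per-plate percentage of DMSO wells with cell-free wells as background, came from CellTiter-Glo One luminescence. Reading took place after 48 h at 37°C. Before that, NOMO1 or SEM (500 cells/well) or P12-Ichikawa (1000 cells/well) leukemia cells, adapted for at least four passages in each medium, were seeded in 1536-well plates (5 μl) and pin-dosed with library compounds in DMSO, 47 μM to 0.79 nM over 11 threefold points.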"}, "SEM cells": {"system": "SEM cells", "experiment": "cell viability relative to DMSO control; higher = less cytotoxic", "conditions": "48 h", "summary_of_the_method": "as §1"}, "P12-Ichikawa [2]": {"system": "P12-Ichikawa", "experiment": "cell viability relative to DMSO control; higher = less cytotoxic", "conditions": "RPMI 5 mM glucose + 10% dialyzed FBS, 48 h", "summary_of_the_method": "as §1"}, "NOMO1 [3]": {"system": "NOMO1", "experiment": "AUC of viability dose-response curve (% viability x log10 dose units); higher = less sensitive", "conditions": "48 h", "summary_of_the_method": "(§2)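 Seeding of medium-adapted leukemia cells was at 500 or 1000 cells/well in 1536-well plates, followed by 48 h at 37°C with library compounds in DMSO at 11 threefold doses from 47 μM to 0.79 nM. CellTiter-Glo One luminescence was normalised per plate to DMSO and cell-free wells and fitted as a four-parameter log-logistic function of log10 dose. Area under the curve was integrated by trapezoidal rule, with curves exceeding full viability scaled and curves failing quality control removed.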"}, "P12-Ichikawa [4]": {"system": "P12-Ichikawa", "experiment": "AUC of viability dose-response curve (% viability x log10 dose units); higher = less sensitive", "conditions": "48 h", "summary_of_the_method": "as §2"}, "[5]": {"conditions": "RPMI 5 mM glucose + 10% dialyzed FBS"}}}
{"smiles": "Cc1ccc([S+](=O)([O-])Nc2cc(Cl)ccc2C(=O)Nc2nc(-c3ccccc3)cs2)cc1", "values": [{"measurement": "cell viability", "setting": "NOMO1 [1]; 0.000781 µM", "value": 122, "unit": "%"}, {"measurement": "cell viability", "setting": "NOMO1 [1]; 0.00234 µM", "value": 117, "unit": "%"}, {"measurement": "cell viability", "setting": "NOMO1 [1]; 0.00702 µM", "value": 129, "unit": "%"}, {"measurement": "cell viability", "setting": "NOMO1 [1]; 0.0211 µM", "value": 118, "unit": "%"}, {"measurement": "cell viability", "setting": "NOMO1 [1]; 0.0632 µM", "value": 121, "unit": "%"}, {"measurement": "cell viability", "setting": "NOMO1 [1]; 0.19 µM", "value": 124, "unit": "%"}, {"measurement": "cell viability", "setting": "NOMO1 [1]; 0.569 µM", "value": 128, "unit": "%"}, {"measurement": "cell viability", "setting": "NOMO1 [1]; 1.71 µM", "value": 119, "unit": "%"}, {"measurement": "cell viability", "setting": "NOMO1 [1]; 5.12 µM", "value": 103, "unit": "%"}, {"measurement": "cell viability", "setting": "NOMO1 [1]; 15.4 µM", "value": 119, "unit": "%"}, {"measurement": "cell viability", "setting": "NOMO1 [1]; 46.1 µM", "value": 9.35, "unit": "%"}, {"measurement": "cell viability", "setting": "SEM cells; HPLM + 10% dialyzed FBS, 0.000781 µM", "value": 116, "unit": "%"}, {"measurement": "cell viability", "setting": "SEM cells; HPLM + 10% dialyzed FBS, 0.00234 µM", "value": 111, "unit": "%"}, {"measurement": "cell viability", "setting": "SEM cells; HPLM + 10% dialyzed FBS, 0.00702 µM", "value": 110, "unit": "%"}, {"measurement": "cell viability", "setting": "SEM cells; HPLM + 10% dialyzed FBS, 0.0211 µM", "value": 117, "unit": "%"}, {"measurement": "cell viability", "setting": "SEM cells; HPLM + 10% dialyzed FBS, 0.0632 µM", "value": 121, "unit": "%"}, {"measurement": "cell viability", "setting": "SEM cells; HPLM + 10% dialyzed FBS, 0.19 µM", "value": 115, "unit": "%"}, {"measurement": "cell viability", "setting": "SEM cells; HPLM + 10% dialyzed FBS, 0.569 µM", "value": 24.8, "unit": "%"}, {"measurement": "cell viability", "setting": "SEM cells; HPLM + 10% dialyzed FBS, 1.71 µM", "value": 133, "unit": "%"}, {"measurement": "cell viability", "setting": "SEM cells; HPLM + 10% dialyzed FBS, 5.12 µM", "value": 119, "unit": "%"}, {"measurement": "cell viability", "setting": "SEM cells; HPLM + 10% dialyzed FBS, 15.4 µM", "value": 120, "unit": "%"}, {"measurement": "cell viability", "setting": "SEM cells; HPLM + 10% dialyzed FBS, 46.1 µM", "value": 55.3, "unit": "%"}, {"measurement": "cell viability", "setting": "SEM cells; RPMI 5 mM glucose + 10% FBS, 0.000781 µM", "value": 127, "unit": "%"}, {"measurement": "cell viability", "setting": "SEM cells; RPMI 5 mM glucose + 10% FBS, 0.00234 µM", "value": 123, "unit": "%"}, {"measurement": "cell viability", "setting": "SEM cells; RPMI 5 mM glucose + 10% FBS, 0.00702 µM", "value": 109, "unit": "%"}, {"measurement": "cell viability", "setting": "SEM cells; RPMI 5 mM glucose + 10% FBS, 0.0211 µM", "value": 126, "unit": "%"}, {"measurement": "cell viability", "setting": "SEM cells; RPMI 5 mM glucose + 10% FBS, 0.0632 µM", "value": 124, "unit": "%"}, {"measurement": "cell viability", "setting": "SEM cells; RPMI 5 mM glucose + 10% FBS, 0.19 µM", "value": 119, "unit": "%"}, {"measurement": "cell viability", "setting": "SEM cells; RPMI 5 mM glucose + 10% FBS, 0.569 µM", "value": 32.1, "unit": "%"}, {"measurement": "cell viability", "setting": "SEM cells; RPMI 5 mM glucose + 10% FBS, 1.71 µM", "value": 124, "unit": "%"}, {"measurement": "cell viability", "setting": "SEM cells; RPMI 5 mM glucose + 10% FBS, 5.12 µM", "value": 121, "unit": "%"}, {"measurement": "cell viability", "setting": "SEM cells; RPMI 5 mM glucose + 10% FBS, 15.4 µM", "value": 120, "unit": "%"}, {"measurement": "cell viability", "setting": "SEM cells; RPMI 5 mM glucose + 10% FBS, 46.1 µM", "value": 58.5, "unit": "%"}, {"measurement": "cell viability", "setting": "SEM cells; RPMI 5 mM glucose + 10% dialyzed FBS, 0.000781 µM", "value": 121, "unit": "%"}, {"measurement": "cell viability", "setting": "SEM cells; RPMI 5 mM glucose + 10% dialyzed FBS, 0.00234 µM", "value": 110, "unit": "%"}, {"measurement": "cell viability", "setting": "SEM cells; RPMI 5 mM glucose + 10% dialyzed FBS, 0.00702 µM", "value": 99.1, "unit": "%"}, {"measurement": "cell viability", "setting": "SEM cells; RPMI 5 mM glucose + 10% dialyzed FBS, 0.0211 µM", "value": 108, "unit": "%"}, {"measurement": "cell viability", "setting": "SEM cells; RPMI 5 mM glucose + 10% dialyzed FBS, 0.0632 µM", "value": 110, "unit": "%"}, {"measurement": "cell viability", "setting": "SEM cells; RPMI 5 mM glucose + 10% dialyzed FBS, 0.19 µM", "value": 120, "unit": "%"}, {"measurement": "cell viability", "setting": "SEM cells; RPMI 5 mM glucose + 10% dialyzed FBS, 0.569 µM", "value": 31.8, "unit": "%"}, {"measurement": "cell viability", "setting": "SEM cells; RPMI 5 mM glucose + 10% dialyzed FBS, 1.71 µM", "value": 119, "unit": "%"}, {"measurement": "cell viability", "setting": "SEM cells; RPMI 5 mM glucose + 10% dialyzed FBS, 5.12 µM", "value": 126, "unit": "%"}, {"measurement": "cell viability", "setting": "SEM cells; RPMI 5 mM glucose + 10% dialyzed FBS, 15.4 µM", "value": 118, "unit": "%"}, {"measurement": "cell viability", "setting": "SEM cells; RPMI 5 mM glucose + 10% dialyzed FBS, 46.1 µM", "value": 32.3, "unit": "%"}, {"measurement": "cell viability", "setting": "P12-Ichikawa [2]; 0.000781 µM", "value": 124, "unit": "%"}, {"measurement": "cell viability", "setting": "P12-Ichikawa [2]; 0.00234 µM", "value": 130, "unit": "%"}, {"measurement": "cell viability", "setting": "P12-Ichikawa [2]; 0.00702 µM", "value": 117, "unit": "%"}, {"measurement": "cell viability", "setting": "P12-Ichikawa [2]; 0.0211 µM", "value": 123, "unit": "%"}, {"measurement": "cell viability", "setting": "P12-Ichikawa [2]; 0.0632 µM", "value": 128, "unit": "%"}, {"measurement": "cell viability", "setting": "P12-Ichikawa [2]; 0.19 µM", "value": 119, "unit": "%"}, {"measurement": "cell viability", "setting": "P12-Ichikawa [2]; 0.569 µM", "value": 117, "unit": "%"}, {"measurement": "cell viability", "setting": "P12-Ichikawa [2]; 1.71 µM", "value": 116, "unit": "%"}, {"measurement": "cell viability", "setting": "P12-Ichikawa [2]; 5.12 µM", "value": 114, "unit": "%"}, {"measurement": "cell viability", "setting": "P12-Ichikawa [2]; 15.4 µM", "value": 101, "unit": "%"}, {"measurement": "cell viability", "setting": "P12-Ichikawa [2]; 46.1 µM", "value": 26.6, "unit": "%"}, {"measurement": "AUC of viability dose-response curve", "setting": "NOMO1 [3]; HPLM + 10% dialyzed FBS", "value": 455}, {"measurement": "AUC of viability dose-response curve", "setting": "NOMO1 [3]; RPMI 5 mM glucose + 10% FBS", "value": 409}, {"measurement": "AUC of viability dose-response curve", "setting": "NOMO1 [3]; [5]", "value": 447}, {"measurement": "AUC of viability dose-response curve", "setting": "P12-Ichikawa [4]; HPLM + 10% dialyzed FBS", "value": 458}, {"measurement": "AUC of viability dose-response curve", "setting": "P12-Ichikawa [4]; RPMI 5 mM glucose + 10% FBS", "value": 457}, {"measurement": "AUC of viability dose-response curve", "setting": "P12-Ichikawa [4]; [5]", "value": 450}]}
